Reference: US10167262B2, “Herbicidal substituted 3-arylpyrazoles” (FMC CORPORATION, priority 2014, dated 2019)

Key:
Assay in all cases: Test C pre-/postemergence greenhouse test, plant response rating 0-100
Format in all cases: in vivo
[1] = test system: Italian ryegrass (Lolium multiflorum); details: Postemergence; for Plant response rating, Ryegrass, Italian: 250 g ai/ha, scale 0 to 100
Source text: (§1) Seeds of plant species selected from blackgrass (Alopecurus myosuroides), Italian ryegrass (Lolium multiflorum), winter wheat (Triticum aestivum), galium (catchweed bedstraw, Galium aparine), corn (Zea mays), large (Lg) crabgrass (Digitaria sanguinalis), giant foxtail (Setaria faberii), johnsongrass (Sorghum halepense), lambsquarters (Chenopodium album), morningglory (Ipomoea coccinea), yellow nutsedge (Cyperus esculentus), pigweed (Amaranthus retroflexus), ragweed (common ragweed, Ambrosia elatior), soybean (Glycine max), barnyardgrass (Echinochloa crus-galli), oilseed rape (Brassica napus), waterhemp (common waterhemp, Amaranthus rudis), and velvetleaf (Abutilon theophrasti) were planted into a blend of loam soil and sand and treated preemergence with test chemicals formulated in a non-phytotoxic solvent mixture which included a surfactant.
(§2) At the same time, plants selected from these crop and weed species and also winter barley (Hordeum vulgare), bermudagrass (Cynodon dactylon), downy bromegrass (Bromus tectorum), canarygrass (Phalaris minor), cocklebur (common cocklebur, Xanthium strumarium), woolly cupgrass (Eriochloa villosa), deadnettle (henbit deadnettle, Lamium amplexicaule), green foxtail (Setaria viridis), goosegrass (Eleusine indica), surinam grass (Brachiaria decumbens), windgrass (Apera spica-venti), chickweed (common chickweed, Stellaria media), kochia (Kochia scoparia), and wild oat (Avena fatua), were planted in pots containing Redi-Earth® planting medium (Scotts Company, 14111 Scottslawn Road, Marysville, Ohio 43041) comprising spaghnum peat moss, vermiculite, wetting agent and starter nutrients and treated with postemergence applications of test chemicals formulated in the same manner. Plants ranged in height from 2 to 18 cm (1- to 4-leaf stage) for postemergence treatments. Treated plants and controls were maintained in a greenhouse for 13 to 15 days, after which time all species were compared to controls and visually evaluated. Plant response ratings, summarized in Table C, are based on a scale of 0 to 100 where 0 is no effect and 100 is complete control. A dash (-) response means no test result.

[2] = test system: blackgrass (Alopecurus myosuroides); details: Postemergence; for Plant response rating, Blackgrass: scale 0 to 100
Source text: as §1, §2

corn (Zea mays) = details: Postemergence
Source text: as §1, §2

[3] = test system: giant foxtail (Setaria faberii); details: Postemergence; for Plant response rating, Foxtail, Giant: 250 g ai/ha, scale 0 to 100
Source text: as §1, §2

[4] = test system: johnsongrass (Sorghum halepense); details: Postemergence; for Plant response rating, Johnsongrass: 250 g ai/ha, scale 0 to 100
Source text: as §1, §2

[5] = test system: lambsquarters (Chenopodium album); details: Postemergence; for Plant response rating, Lambsquarters: 250 g ai/ha, scale 0 to 100
Source text: as §1, §2

[6] = test system: large (Lg) crabgrass (Digitaria sanguinalis); details: Postemergence; for Plant response rating, Crabgrass, Large: 250 g ai/ha, scale 0 to 100
Source text: as §1, §2

[7] = test system: pigweed (Amaranthus retroflexus); details: Postemergence; for Plant response rating, Pigweed: 250 g ai/ha, scale 0 to 100
Source text: as §1, §2

[8] = test system: ragweed (common ragweed, Ambrosia elatior); details: Postemergence; for Plant response rating, Ragweed: 250 g ai/ha, scale 0 to 100
Source text: as §1, §2

soybean (Glycine max) = details: Postemergence; for Plant response rating, Soybean: 250 g ai/ha, scale 0 to 100
Source text: as §1, §2

[9] = test system: velvetleaf (Abutilon theophrasti); details: Postemergence
Source text: as §1, §2

[10] = test system: winter wheat (Triticum aestivum); details: Postemergence; for Plant response rating, Wheat: 250 g ai/ha, scale 0 to 100
Source text: as §1, §2

[11] = test system: yellow nutsedge (Cyperus esculentus); details: Postemergence; for Plant response rating, Nutsedge, Yellow: 250 g ai/ha, scale 0 to 100
Source text: as §1, §2

With `O=C(c1ccccc1)c1cn(S(=O)(=O)CCl)nc1-c1cc(Cl)cc(Cl)c1` [Compound 1] the “Plant response rating (0 to 100), Ryegrass, Italian” value ([1]; 62 g ai/ha) was 0, the “Plant response rating (0 to 100), Ryegrass, Italian” value ([1]; 125 g ai/ha) was 0 and the “Plant response rating, Ryegrass, Italian” value [1] was 0. For the same compound, the “Plant response rating (0 to 100), Blackgrass” value ([2]; 31 g ai/ha) was 0, the “Plant response rating (0 to 100), Blackgrass” value ([2]; 62 g ai/ha) was 0 and the “Plant response rating, Blackgrass” value ([2]; 125 g ai/ha) was 0. For the same compound, the “Plant response rating, Blackgrass” value ([2]; 250 g ai/ha) was 0, the “Plant response rating (0 to 100), Corn” value (corn (Zea mays); 31 g ai/ha) was 0 and the “Plant response rating (0 to 100), Corn” value (corn (Zea mays); 62 g ai/ha) was 0. The “Plant response rating (0 to 100), Corn” value (corn (Zea mays); 125 g ai/ha) was 0, the “Plant response rating, Corn” value (corn (Zea mays); 250 g ai/ha, scale 0 to 100) was 0 and the “Plant response rating (0 to 100), Foxtail, Giant” value ([3]; 31 g ai/ha) was 0. The “Plant response rating (0 to 100), Foxtail, Giant” value ([3]; 62 g ai/ha) was 0, the “Plant response rating (0 to 100), Foxtail, Giant” value ([3]; 125 g ai/ha) was 0 and the “Plant response rating, Foxtail, Giant” value [3] was 0. The “Plant response rating (0 to 100), Johnsongrass” value ([4]; 62 g ai/ha) was 0, the “Plant response rating (0 to 100), Johnsongrass” value ([4]; 125 g ai/ha) was 0 and the “Plant response rating, Johnsongrass” value [4] was 0. For the same compound, the “Plant response rating (0 to 100), Lambsquarters” value ([5]; 62 g ai/ha) was 70, the “Plant response rating (0 to 100), Lambsquarters” value ([5]; 125 g ai/ha) was 85 and the “Plant response rating, Lambsquarters” value [5] was 85. For the same compound, the “Plant response rating (0 to 100), Crabgrass, Large” value ([6]; 31 g ai/ha) was 0, the “Plant response rating (0 to 100), Crabgrass, Large” value ([6]; 62 g ai/ha) was 0 and the “Plant response rating (0 to 100), Crabgrass, Large” value ([6]; 125 g ai/ha) was 0. The “Plant response rating, Crabgrass, Large” value [6] was 0, the “Plant response rating (0 to 100), Pigweed” value ([7]; 62 g ai/ha) was 98 and the “Plant response rating (0 to 100), Pigweed” value ([7]; 125 g ai/ha) was 100. For the same compound, the “Plant response rating, Pigweed” value [7] was 100, the “Plant response rating (0 to 100), Ragweed” value ([8]; 62 g ai/ha) was 40 and the “Plant response rating (0 to 100), Ragweed” value ([8]; 125 g ai/ha) was 50. The “Plant response rating, Ragweed” value [8] was 65, the “Plant response rating (0 to 100), Soybean” value (soybean (Glycine max); 62 g ai/ha) was 0 and the “Plant response rating (0 to 100), Soybean” value (soybean (Glycine max); 125 g ai/ha) was 0. The “Plant response rating, Soybean” value (soybean (Glycine max)) was 0, the “Plant response rating (0 to 100), Velvetleaf” value ([9]; 62 g ai/ha) was 70 and the “Plant response rating (0 to 100), Velvetleaf” value ([9]; 125 g ai/ha) was 75. For the same compound, the “Plant response rating, Velvetleaf” value ([9]; 250 g ai/ha, scale 0 to 100) was 80, the “Plant response rating (0 to 100), Wheat” value ([10]; 62 g ai/ha) was 0 and the “Plant response rating (0 to 100), Wheat” value ([10]; 125 g ai/ha) was 0. The “Plant response rating, Wheat” value [10] was 0, the “Plant response rating (0 to 100), Nutsedge, Yellow” value ([11]; 62 g ai/ha) was 0 and the “Plant response rating (0 to 100), Nutsedge, Yellow” value ([11]; 125 g ai/ha) was 0. The “Plant response rating, Nutsedge, Yellow” value [11] was 10.

`CCn1cc(C(=O)c2ccccc2)c(-c2cc(Br)cc(Br)c2)n1` [Compound 38] was tested, and the “Plant response rating (0 to 100), Ryegrass, Italian” value ([1]; 62 g ai/ha) was 0, the “Plant response rating (0 to 100), Ryegrass, Italian” value ([1]; 125 g ai/ha) was 0 and the “Plant response rating, Ryegrass, Italian” value [1] was 0. The “Plant response rating (0 to 100), Blackgrass” value ([2]; 31 g ai/ha) was 0, the “Plant response rating (0 to 100), Blackgrass” value ([2]; 62 g ai/ha) was 0 and the “Plant response rating (0 to 100), Blackgrass” value ([2]; 125 g ai/ha) was 0. The “Plant response rating, Blackgrass” value ([2]; 250 g ai/ha) was 5, the “Plant response rating (0 to 100), Foxtail, Giant” value ([3]; 31 g ai/ha) was 0 and the “Plant response rating (0 to 100), Foxtail, Giant” value ([3]; 62 g ai/ha) was 0. The “Plant response rating (0 to 100), Foxtail, Giant” value ([3]; 125 g ai/ha) was 0, the “Plant response rating, Foxtail, Giant” value [3] was 0 and the “Plant response rating (0 to 100), Johnsongrass” value ([4]; 62 g ai/ha) was 0. The “Plant response rating (0 to 100), Johnsongrass” value ([4]; 125 g ai/ha) was 0, the “Plant response rating, Johnsongrass” value [4] was 0 and the “Plant response rating (0 to 100), Lambsquarters” value ([5]; 62 g ai/ha) was 75. The “Plant response rating (0 to 100), Lambsquarters” value ([5]; 125 g ai/ha) was 75, the “Plant response rating, Lambsquarters” value [5] was 100 and the “Plant response rating (0 to 100), Crabgrass, Large” value ([6]; 31 g ai/ha) was 0. The “Plant response rating (0 to 100), Crabgrass, Large” value ([6]; 62 g ai/ha) was 0, the “Plant response rating (0 to 100), Crabgrass, Large” value ([6]; 125 g ai/ha) was 0 and the “Plant response rating, Crabgrass, Large” value [6] was 0. For the same compound, the “Plant response rating (0 to 100), Pigweed” value ([7]; 62 g ai/ha) was 85, the “Plant response rating, Pigweed” value [7] was 100 and the “Plant response rating (0 to 100), Ragweed” value ([8]; 62 g ai/ha) was 10. The “Plant response rating (0 to 100), Ragweed” value ([8]; 125 g ai/ha) was 20, the “Plant response rating, Ragweed” value [8] was 35 and the “Plant response rating (0 to 100), Soybean” value (soybean (Glycine max); 62 g ai/ha) was 0. For the same compound, the “Plant response rating (0 to 100), Soybean” value (soybean (Glycine max); 125 g ai/ha) was 0, the “Plant response rating, Soybean” value (soybean (Glycine max)) was 0 and the “Plant response rating (0 to 100), Velvetleaf” value ([9]; 62 g ai/ha) was 75. For the same compound, the “Plant response rating (0 to 100), Velvetleaf” value ([9]; 125 g ai/ha) was 90, the “Plant response rating (0 to 100), Wheat” value ([10]; 62 g ai/ha) was 0 and the “Plant response rating (0 to 100), Wheat” value ([10]; 125 g ai/ha) was 0. For the same compound, the “Plant response rating, Wheat” value [10] was 5, the “Plant response rating (0 to 100), Nutsedge, Yellow” value ([11]; 62 g ai/ha) was 0 and the “Plant response rating (0 to 100), Nutsedge, Yellow” value ([11]; 125 g ai/ha) was 0. The “Plant response rating, Nutsedge, Yellow” value [11] was 0.
